Source: US6458760B1, “Method for treating tissue damaged from ischemia” (Henry Ford Health System, priority 1998, dated 2002)
Residues, ends and D or L forms follow the SMILES beside them. *: point of attachment. Cbz = O=C(OCc1ccccc1)*; CHN2 = [N-]=[N+]=C*; Bn = c1ccc(C*)cc1

Experiments:
[1] = molecular target: Cathepsin B (Homo sapiens, UniProt P07858); experiment: Cathepsin B inactivation rate, fluorimetric progress curves; format: biochemical; conditions: second order inactivation rate constant corrected for substrate; pH 5.4, 30° C.
Protocol: (“Tian, et al.”) the contents of which are incorporated by reference. More specifically, the value of kobs is given by the slope of a plot of ln [P]∞−[p]t versus t (time). The apparent second-order rate contact for inactivation, k2app was calculated as kobs/[I]. The inactivation-rates (kobs) in the presence of substrate and for different inhibitor concentrations for calpain, cathepsin B and cathepsin L are determined according to the method of Tian, et al. However, k2app is corrected for the presence of substrate (s) to give the second order rate constant k^12app, calculated as k^12app=k2app (1+[s]/Km).
Cathepsins B and L were preactivated with […] DTT in 50 mM sodium acetate buffer, pH 5.4, 1 mM EDTA for 2 h at 4° C. and assayed in the same buffer with 0.01% Brij [poly(oxyethylene) glycol dodecyl ether]. […] The inhibitors (0.1-1 μM) and substrate were added to the reaction mixture to incubate for 5 min in a cuvette thermostated at 30° C. Then, approximately 0.4 nM and 0.1 nM final concentration of cathepsin B and cathepsin L, respectively, were used to initiate the reaction. […] The progress curves were analyzed over at least 3 half lives to calculate the rate constants of inactivation in accordance with the procedure described by Crawford, C. Mason, R. W., Wilkström, P., and Shaw, E. in an article entitled “The design of peptidyldiazomethane inhibitors to distinguish between the cysteine proteinases calpain II, cathepsin L and cathepsin B.”, Biochem. J. 1988, 253, 751-758, the contents of which are incorporated by reference. The rates of inactivation of various substrates are tabulated hereinbelow.

[2] = test system: Wistar rats with MCA occlusion; experiment: Stroke model, 2 h MCA occlusion, i.v. infusion after reperfusion, infarct volume at 7 days; format: in vivo, rat; conditions: for % Hemisphere Infarct Volume (% ± SEM): 2 h MCA occlusion, day 7, control 37 ± 2.6
Protocol: Male Wistar rat weighing between 270-290 gm are fasted the night prior to surgery. Each rat was then anesthetized with 3.5% halothane, and spontaneously respired with 0.5% halothane in a 2:1 N2O:O2 mixture using a face mask. A normal range of blood gases and pH is maintained during ischemia and reperfusion with the face mask inhalation, as verified by samples taken from a femoral artery PE-50 catheter. Body temperature is maintained constant at 37° C. with a recirculating heating pad and K module with an intrarectal type T thermocouple. The PE-50 catheters are inserted into the femoral artery and vein following induction of anesthesia to obtain the blood gas, glucose and hemoglobin concentrations and to monitor blood pressure.
The right common carotid artery, external carotid artery and internal carotid artery are isolated using microsurgical techniques. A clamp is applied to the common carotid artery and a 4-0 nylon suture with a rounded tip is inserted into the external carotid artery through a small puncture. The clamp on the common carotid artery is removed. The suture is passed distally into the internal carotid artery until it blocks the middle cerebral artery. Two hours after the MCA occlusion, the animal is again anesthetized, and the nylon suture is removed from the internal carotid artery.
Infusion of the inhibitor or vehicle is done by intravenous infusion via the femoral vein.
Syringe pumps were filled under sterile conditions with either isotonic saline/1% DMSO solution as the control or with the concentration of CP-1 or CP-2 indicated in the examples, hereinbelow. The pumps delivered the solution at a rate of 15 μl/min for up to 4 hours.
After anesthesia had been induced in the rat, a catheter was inserted into the femoral vein and tunneled subcutaneously in the posterior neck region. Body temperature was maintained at a constant temperature of 37° C. during surgical procedures. The animals underwent 2 hours of MCA occlusion, and then reperfusion when the suture was withdrawn, and immediately thereafter, the drug was infused for four hours. The animals were killed after a 7-day reperfusion, and the brains were formalin fixed and sliced 6-μm thick into seven coronal sections A-G, and mounted on coated slides. After staining with hematoxylin and eosin, the stroke volume was measured using an image analysis program. The stroke area and the contralateral hemispheric area were calculated by tracing the areas on the computer screen, and the volumes were determined by multiplying the appropriate area by the section interval thickness. The stroke volume is expressed as the percentage of lesion size to the volume of contralateral hemisphere. Statistical analysis was performed using the independent t-test.
CP-1 dissolved in 1% DMSO and isotonic saline was given intravenously to Wistar rats (15 μl/min) at concentrations of 2 μM, 10μM, 50μM and 25μM for 4 hours immediately after reperfusion following two hours of MCA occlusion, in accordance with the procedure described hereinabove. Control animals underwent a similar protocol but they had injected therein 1% DMSO/Saline as the vehicle within four hours. All animals which survived 7 days were sacrificed and the stroke volume calculated. The results are tabulated hereinbelow:
The protocol described hereinabove was repeated with CP-2 used in lieu of CP-1, at doses of 10, 50, 250 and 500 μM.

[3] = test system: Wistar rats with MCA occlusion; experiment: Neurological function on four point scale (Bederson) after 3 h MCA occlusion; format: in vivo, rat
Protocol: CP-1 dissolved in 1% DMSO and isotonic saline was given intravenously to Wistar rats (15 μl/min) at a concentration of 50 μM for four hours beginning at the end of three hours of MCA occlusion, in accordance with the protocol described hereinabove. Control animals underwent a similar protocol, but they had injected therein a 1% DMSO/Saline as the vehicle for four hours beginning at the end of a three hour MCA occlusion. All animals which survived 7 days were sacrificed and the infarct volume was measured 7 days after the MCA occlusion.
On the first day and on the seventh day after occlusion, the neurological function was determined on a four point scale (0, 1, 2, 3,) as described in an article by Bederson, et al. in Stroke, 1986, 17:472-476, the contents of which are incorporated by reference.
The rats were placed on large sheet of soft, plastic coated paper (such as counter protection paper) which they could potentially firmly grip with their claws. The tail of the rats were held by hand, and gentle lateral pressure was applied behind the rat's shoulder until it was noticed that the forelimbs slid several inches. This maneuver was repeated several times in each direction. […] (These rats were severely dysfunctional).
These values are the mean score ±SEM of the results from treatment on control animals. P≦0.05 according to the Mann Whitney Rank Sum test.

Which “Cathepsin B k′2app” value [1] does the source give for `[N-]=[N+]=CC(=O)C(COCc1ccccc1)NC(=O)C(Cc1ccccc1)NC(=O)OCc1ccccc1` (stereo not drawn) [CP-1, benzyloxycarbonyl-Phe-Ser(OBz)-CHN2] (Cbz-Phe-Ser(Bn)-CHN2; configuration not given here) here?
Its value is 8,800 M^−1S^−1.

What about the “% Hemisphere Infarct Volume (% ± SEM)” value ([2]; 2 μM i.v. 15 μl/min for 4 h after reperfusion) of the same compound?
The value was 39 ± 2.1, p > 0.1%.

And the “% Hemisphere Infarct Volume (% ± SEM)” value ([2]; 10 μM i.v. 15 μl/min for 4 h after reperfusion)?
Its value is 22 ± 4.7, p = 0.01%.

What about the “% Hemisphere Infarct Volume (% ± SEM)” value ([2]; 50 μM i.v. 15 μl/min for 4 h after reperfusion) of the same compound?
Its value is 20 ± 4.1, p = 0.003%.

And the “% Hemisphere Infarct Volume (% ± SEM)” value ([2]; 250 μM i.v. 15 μl/min for 4 h after reperfusion)?
Its value is 23 ± 5.2, p = 0.02%.

And the “area of damage of the cerebral hemisphere” value ([2]; all doses except 2 μM, reduced from 37% in control)?
The value was “about 20%”.

And the “Functional Score Day 7” value ([3]; 50 μM i.v. 4 h after 3 h MCA occlusion, scale 0-3, mean ± SEM, control 1.9 ± 0.3)?
The value was 0.9 ± 0.2.

What about the “Functional Score Day 1” value ([3]; 50 μM i.v. 4 h after 3 h MCA occlusion, scale 0-3, mean ± SEM, control 3 ± 0) of the same compound?
Its value is 2.1 ± 0.6.

And the “reducing the neurological deficits due to the occlusion” value ([3]; 50 μM, 3 hour MCA occlusion)?
Its value is “effective in reducing the neurological deficits”.
